“And” between values parts separate entries of the source, which are not always exact repeats. Identical values can stand only once.
Columns and labels:
[1] = tested on: cell membranes or tight junctions; type: cell-based
Text: Diketopiperazine facilitate transcellular transport of biologically active agents across biological tissues however they are not penetration enhancers. Penetration enhancers are compounds that improve drug movement across biological tissues by disrupting cell membranes. Examples of penetration enhancers are surfactants and soaps. […] Diketopiperazine/insulin powder compositions are soluble at the physiological pH of the lung surface and dissolve rapidly after inhalation. Once dissolved, the DKP facilitates passive transcellular transport of the insulin.

[2] = Laser diffraction particle size analysis; type: physicochemical
Text: The microparticles described in Examples 6 and 7 were subjected to laser diffraction particle size analysis (SympatecGmbH, Germany) (FIGS. 1A and 1B).

Row | Fine Particle Fraction (<5.8 μm) [2] | Particle Size 0.5-5 μm [2] | Particle Size <3 μm [2] | VMD (volume median diameter) [2] | X10 [2] | X16 [2] | X50 [2] | X84 [2] | X90 [2] | X99 [2] | SMILES | cell viability [1] | disruption of cell membranes or tight junctions [1]
1 | – | – | – | – | – | – | – | – | – | – | O=C(O)/C=C/C(=O)NCCCCC1NC(=O)C(CCCCNC(=O)/C=C/C(=O)O)NC1=O (stereo not drawn) [FDKP, 3,6-di(fumaryl-4-aminobutyl)-2,5-diketopiperazine] | does not compromise cell viability | does not disrupt cell membranes or tight junctions
2 | 91.46% and 86.01% | 87.91% and 80.13% | 53.39% and 47.37% | 3.70 μm and 3.76 μm | 1.60 μm and 1.55 μm | 1.44 μm and 1.36 μm | 2.89 μm and 3.11 μm | 4.60 μm and 5.53 μm | 5.47 μm and 6.64 μm | 19.20 μm and 14.04 μm | O=C([O-])C=CC(=O)NCCCCC1NC(=O)C(CCCCNC(=O)C=CC(=O)[O-])NC1=O.[Na+].[Na+] (stereo not drawn) [Preparation A] | – | –

Reference: US10912821B2, “Diketopiperazine salts for drug delivery and related methods” (MannKind Corporation, priority 2004, dated 2021)
